How the values were obtained:
[1] = system: AML3, U937, LP1 and MY5 cells; experiment: Cell cycle analysis (PI staining and flow cytometry); assay type: cell-based; conditions: low micromolar concentrations
Experimental: A) Effect of increasing concentrations of clioquinol on LP1 and MY5 multiple myeloma cells at twenty hours after clioquinol treatment; determined by SDS-PAGE immunoblotting. B) Effect of increasing concentrations of clioquinol on the G0/G1 ratio in AML3, U937, LP1 and MY5 cells at twenty hours after clioquinol treatment; determined by PI staining and flow cytometry. Cells were harvested, washed with cold PBS, suspended in 70% cold ethanol and incubated overnight at −20° C. Cells were then treated with 100 ng/ml of DNase-free RNase (InvitroGen) at 37° C. for 30 min, washed with cold PBS, and resuspended in PBS with 50 μg/ml of propidium iodine. DNA content was analyzed by flow cytometry (FACSCalibur, Becton Dickinson, Fla., USA). The percentage of cells in each phase of the cell cycle was calculated with ModiFit software (Becton Dickinson).

ubiquitinated proteins = experiment: Immunoblotting of ubiquitinated proteins; assay type: cell-based; conditions: leukemia and myeloma cells
Experimental: (§1) Effect of increasing concentrations of clioquinol on LP1 and MY5 multiple myeloma cells at twenty hours after clioquinol treatment; determined by SDS-PAGE immunoblotting. To prepare cytosolic extracts, NIH3T3 cells and myeloma cells were washed with phosphate-buffered saline (PBS, pH 7.4) and suspending in lysis buffer [10 mM Tris (pH 7.4), 150 mM NaCl, 0.1% Triton X-100, 0.5% sodium deoxycholate, and 5 mM EDTA] containing protease inhibitors (Complete tablets, Roche, Indianapolis, Ind.). Protein concentrations were determined by the Bradford assay. Immunoblot assays were performed by subjecting equal amounts of protein to SDS-PAGE gels followed by transfer to Nitrocellulose membranes. Membranes were probed with polyclonal rabbit anti-human cyclin D2 (0.5 μg/ml, both from Santa Cruz Biotech, Santa Cruz, Calif.), or monoclonal mouse-anti human p21 (1:200 v/v, Santa Cruz Biotech), monoclonal mouse-anti human p27 (1:2,500 v/v BD Transduction Laboratories), polyclonal mouse-anti human ubiquitin (1:2,000 v/v Calbiochem) and monoclonal mouse-anti-β-actin (1:10,000 v/v) (Sigma, St. Lois, Mo.). Secondary antibodies (Amersham Bioscience UK, Little Chalfont, England) were horseradish peroxidase (HRP)-conjugated goat anti-mouse IgG (1:10,000 v/v) and anti-rabbit (1:5,000 v/v). Detection was performed by the Enhanced Chemical Luminescence (ECL) method (Pierce, Rockford, Ill.).

p21 = experiment: Immunoblotting of p21; assay type: cell-based; conditions: low micromolar concentrations
Source text: as §1, with “A) Effect” for “Effect”, “immunoblotting. B) Effect of increasing concentrations of clioquinol on the G0/G1 ratio in AML3, U937, LP1 and MY5 cells at twenty hours after clioquinol treatment; determined by PI staining and flow cytometry.” for “immunoblotting.”, “Secondary antibodies (Amersham Bioscience UK, Little Chalfont, England) were horseradish peroxidase (HRP)-conjugated goat anti-mouse IgG (1:10,000 v/v) and anti-rabbit (1:5,000 v/v).” left out

[2] = system: primary AML patient samples; experiment: Cell viability (MTS assay), primary AML patient samples; assay type: cell-based, human
Experimental: Cell viability of leukemia, myeloma, solid tumor and primary cells forty-eight hours after clioquinol treatment by MTS assay. Cell viability was assessed with the CellTiter96® Aqueous Non-Radioactive Assay kit according to manufactures' instructions (Promega). Apoptosis was measured by flow cytometry to detect cell surface Annexin V expression and propidium iodide (PI) uptake (Biovision, Mountain View, Calif., USA) as previously described (20) The inventors tested the effects of clioquinol on the viability of acute leukemia (n=7), myeloma (n=14), and solid tumor (n=5) cell lines as well as primary AML samples (n=6) and primary normal hematopoietic cells (n=3). Forty-eight hours after incubation, clioquinol induced cell death in 6/7 AML, 12/14 myeloma, 0/5 solid tumor, […] and 0/3 normal hematopoietic cells with an IC50 <20 μM (FIG. 5). Of note, after oral administration of clioquinol, trough serum concentrations of 20 μM can be achieved in patients (32).

cyclin D2 = experiment: Immunoblotting of cyclin D2 in myeloma and leukemia cells; assay type: cell-based; conditions: low micromolar concentrations
Source text: as §1, with “A) Effect” for “Effect”, “immunoblotting. B) Effect of increasing concentrations of clioquinol on the G0/G1 ratio in AML3, U937, LP1 and MY5 cells at twenty hours after clioquinol treatment; determined by PI staining and flow cytometry.” for “immunoblotting.”, “Secondary antibodies (Amersham Bioscience UK, Little Chalfont, England) were horseradish peroxidase (HRP)-conjugated goat anti-mouse IgG (1:10,000 v/v) and anti-rabbit (1:5,000 v/v).” left out

[3] = system: MDAY-D2 murine leukemia cells
Experimental: DBA-2 mice were injected intraperitoneally with MDAY-D2 murine leukemia cells. Mice were then treated twice daily by oral gavage with clioquinol (100 mg/kg) dissolved in intralipid or intralipid control. Ten days after treatment, mice were sacrificed, the intraperitoneal tumor excised, and the weight and volume of the tumor measured.
MDAY-D2 leukemia cells were injected intraperitoneally into DBA2 mice. Mice were then treated twice daily with oral clioquinol (100 mg/kg) for 10 days. Ten days after treatment, mice were sacrificed and the weight and volume of the intraperitoneal tumor was measured (FIG. 7). […] K562 leukemia cells were injected subcutaneous into sublethally irradiated […] mice. The clioquinol treatment was initiated when tumors reached volumes of 200 mm^3 at which time mice were randomized to receive 100 mg/kg of clioquinol (treated group) or buffer control (untreated group) for 5 of 7 days. Caliper measurements were performed twice weekly to estimate tumor volume and differences compared between treated and untreated groups.

Structure (SMILES): Oc1c(I)cc(Cl)c2cccnc12 [clioquinol, 5-chloro-7-iodo-8-hydroxyquinoline]
- cell cycle arrest [1]: arrested cells in the G1 phase
- amount of ubiquitinated protein (ubiquitinated proteins): increased the amount of ubiquitinated protein
- expression of p21 (p21): increased expression
- IC50 ([2]; Homo sapiens, 6/7 primary AML patient samples, forty-eight hours, read-out: IC50 (cell death)): < 20 µM
- potency of clioquinol ([2]; primary AML cells supplemented with copper): increased the potency of clioquinol
- levels of cyclin D2 (cyclin D2): reduced levels of cyclin D2
- tumor progression (weight and volume of intraperitoneal tumor) ([3]; 100 mg/kg oral twice daily for 10 days): delayed tumor progression
- tumor weight ([3]; in vivo mouse model of leukemia): dramatically reduces tumor weight

Reference: patent publication US20110123617A1, “CLIOQUINOL FOR THE TREATMENT OF HEMATOLOGICAL MALIGNANCIES” (priority 2007, published 2011)
